{"source": "patent US9266876B2", "about": "(Actelion Pharmaceuticals Ltd., priority 2012, dated 2016)", "origin": "cited, not measured here", "test_system": "tumor cells", "conditions": "administration of AMG487; Pradelli, E. et al. Int J Cancer 2009, 125, 2586; cited from earlier work", "data": [{"smiles": "CCOc1ccc(-n2c([C@@H](C)N(Cc3cccnc3)C(=O)Cc3ccc(OC(F)(F)F)cc3)nc3ncccc3c2=O)cc1", "note": "[AMG487]", "values": [{"measurement": "metastasis of tumor cells to the lungs", "value": "could limit the metastasis of tumor cells to the lungs"}]}]}
